Experimental data taken from patent publication US20050191344A1, “Liposome composition for delivery of therapeutic agents” (priority 2004, published 2005).

Assays:
[1] = Zeta potential of liposomes as a function of pH; assay type: physicochemical; details: FIG. 2
Text: As discussed in Example 5, zeta potential measurements were obtained for the liposomes containing DSPEI and for the liposomes containing HDSG. […] This is likely indicative of a higher pKa and greater charge at physiological pH. […] The greater neutrality of DSPEI-containing liposomes is important for minimization of non-specific interactions with plasma proteins and cells under in vivo conditions and thus prolonged circulation in the blood, which is necessary for systemic drug and gene delivery, as well as delivery of gene modulators, to diseased tissues.
With continuing reference to FIG. 2, zeta potential measurements were also determined for liposomes prepared using dimethyldioctadecylammonium bromide (DDAB) (diamonds). […] Therefore DDAB-containing liposomes retain their cationic charge at physiological pH and are more likely to participate in non-specific interactions with plasma proteins under in vivo conditions. DDAB-containing liposomes are consequently cleared rapidly from circulation and are less suitable for drug or gene delivery to diseased tissues.
Zeta potential was measured using a ZETASIZER 2000 from Malver Instruments, Inc. (Southborough Mass.). […]

[2] = reported values; cited from earlier work

In the case of `CCCCCCCCCCCCCCCCCC[N+](C)(C)CCCCCCCCCCCCCCCCCC.[Br-]` [DDAB, dimethyldioctadecylammonium bromide, reference compound], the “pKa relative to the other lipids, inferred from zeta potential versus pH slope” value [1] is reported as “higher than for either HDSG or DSPEI”.

For `CCCCCCCCCCCCCCCCCC(=O)OCC(COP(=O)(O)OCCNCc1c[nH]cn1)OC(=O)CCCCCCCCCCCCCCCCC` (stereo not shown) [DSPEI, distearoylphosphatidylethanolamine imidazole], the “pKa relative to the other lipids, inferred from zeta potential versus pH slope” value [1] was “lower pKa than HDSG”.

For `NCCc1c[nH]cn1` [histamine], the pKa [2] is given as 6.

For `c1c[nH]cn1` [imidazole], the pKa [2] is listed as “about 6.0”.
